Data set [1] is described as follows: Permeability assessment using Caco-2 cells. As to conditions: human; for efflux ratio at 120 min, 10 µM / Papp B→A at 120 min, 10 µM: Caco-2, 10 µM. Format: in vitro ADME, human. As to the method: (§1) Stock solutions (10 mM) of reference compounds and 10g were diluted to a concentration of 10 µM with the transport buffer (HBSS + 1%BSA) and the test compounds were applied to the apical or basolateral side of the cell monolayer. […] In addition, the efflux ratio of each compound was also determined. Reference compounds and 10g were quantified by LC-MS/MS analysis based on the peak area ratio of analyte/the internal standard.
In general terms: Passage across Caco-2 layers is used to estimate intestinal permeability.

The next data set addresses ALK-wt (Homo sapiens, UniProt Q9UM73). As to the kind of experiment: Radiometric biochemical kinase assay, ALK-wt. As to conditions: radiometric kinase assay, 10 µM ATP; for IC50: read-out: IC50 ALK-wt. As to the method: (§2) Biochemical kinase assay was performed by methods previously reported. Kinase reactions of all test compounds except 10g were carried out at 10 µM ATP. Kinase reaction of 10g was performed at three different concentrations of ATP (10/50/100 µM).

The target in the next data set is ALK-L1196M (Homo sapiens, UniProt Q9UM73, L1196M). Nature of the data set: Radiometric biochemical kinase assay, ALK-L1196M. As to conditions: for IC50: radiometric kinase assay, 10 µM ATP. The method, then:
as §2

Another data set has as its system H2228 (EML4-ALK) cells. Nature of the data set: Anti-proliferation assay (CTG), H2228. Format: cell-based. Conditions: mean ± SD of three independent experiments; for GI50 H2228 (EML4-ALK): 72 h; for GI50: Homo sapiens, NCI-H2228, 72 h. The method, then:
(§3) ALK wt-TEL, ALK L1196M-TEL transformed Ba/F3 and H2228 cell lines were cultured in RPMI1640 (Welgene, # LM011-01). […] Parental Ba/F3 cells were cultured in RPMI1640 media supplemented with 10% foetal bovine serum and 1% penicillin/streptomycin solution in the presence of IL-3. The cells were maintained in a humidified atmosphere containing 5% CO2 at 37 °C.
(§4) Cells (ALK wt-TEL, ALK L1196M-TEL and Parental Ba/F3: 1 × 10^4, H2228: 5 × 10^3) were plated in 96 well tissue culture plates. Each compound was added to each well at 10 dose points of three-fold serial dilution in DMSO. After treatment with each compound for 72 h, CTG assay solution (Promega, # G7572) was added to each well.

Another data set relates to Parental Ba/F3 cells. Nature of the data set: Anti-proliferation assay (CTG), parental Ba/F3. The data set is classed as cell-based. Conditions: with IL-3, mean ± SD of three independent experiments; for GI50 Ba/F3 cell lines Parental: 72 h; for GI50: Mus musculus, BaF3, 72 h, read-out: GI50 Ba/F3 cell lines Parental. As to the method:
as §3, §4

For the next data set, the system named is ALK wt-TEL Ba/F3 cells. As to the kind of experiment: Anti-proliferation assay (CTG), ALK wt-TEL Ba/F3. Conditions: 72 h, CTG, mean ± SD of three independent experiments; for GI50: Mus musculus, BaF3, read-out: GI50 Ba/F3 cell lines ALK wt-TEL. The data set is classed as cell-based. The method, then:
as §3, §4

Data set [2] deals with ALK L1196M-TEL Ba/F3 cells. As to the kind of experiment: Anti-proliferation assay (CTG), ALK L1196M-TEL Ba/F3. The data set is classed as cell-based. As to conditions: for GI50: Mus musculus, BaF3, read-out: GI50 Ba/F3 cell lines ALKL1196M-TEL; for differential cytotoxicity against ALK-L1196M Ba/F3 cells vs. parental Ba/F3 cells compared with crizotinib: in words. The method, then:
as §3, §4

A further data set concerns Caco-2 cells. Nature of the data set: Permeability assessment using Caco-2 cells. The data set is classed as in vitro ADME, human. Conditions: P-gp substrate status from efflux ratio. The method, then:
as §1

The mark [3] stands for this setting: Caco-2, Caco-2, 10 µM, 120 min, 37 °C, HBSS + 1%BSA, read-out: Mean Papp A to B.
[4] abbreviates: Caco-2, Caco-2, 10 µM, 120 min, read-out: Mean recovery % A to B.
Setting [5] is: Caco-2, Caco-2, 10 µM, 120 min, read-out: Mean recovery % B to A.
[6] abbreviates: Caco-2, Caco-2 permeability class from Papp (A to B), read-out: Rank Papp.
Setting [7] is: 72 h, CTG, mean ± SD of three independent experiments.

The structures appear in SMILES notation. Where two headings read alike, the source gives them in different places.

Chain of ALK-L1196M (Q9UM73 19-1620 L1196M): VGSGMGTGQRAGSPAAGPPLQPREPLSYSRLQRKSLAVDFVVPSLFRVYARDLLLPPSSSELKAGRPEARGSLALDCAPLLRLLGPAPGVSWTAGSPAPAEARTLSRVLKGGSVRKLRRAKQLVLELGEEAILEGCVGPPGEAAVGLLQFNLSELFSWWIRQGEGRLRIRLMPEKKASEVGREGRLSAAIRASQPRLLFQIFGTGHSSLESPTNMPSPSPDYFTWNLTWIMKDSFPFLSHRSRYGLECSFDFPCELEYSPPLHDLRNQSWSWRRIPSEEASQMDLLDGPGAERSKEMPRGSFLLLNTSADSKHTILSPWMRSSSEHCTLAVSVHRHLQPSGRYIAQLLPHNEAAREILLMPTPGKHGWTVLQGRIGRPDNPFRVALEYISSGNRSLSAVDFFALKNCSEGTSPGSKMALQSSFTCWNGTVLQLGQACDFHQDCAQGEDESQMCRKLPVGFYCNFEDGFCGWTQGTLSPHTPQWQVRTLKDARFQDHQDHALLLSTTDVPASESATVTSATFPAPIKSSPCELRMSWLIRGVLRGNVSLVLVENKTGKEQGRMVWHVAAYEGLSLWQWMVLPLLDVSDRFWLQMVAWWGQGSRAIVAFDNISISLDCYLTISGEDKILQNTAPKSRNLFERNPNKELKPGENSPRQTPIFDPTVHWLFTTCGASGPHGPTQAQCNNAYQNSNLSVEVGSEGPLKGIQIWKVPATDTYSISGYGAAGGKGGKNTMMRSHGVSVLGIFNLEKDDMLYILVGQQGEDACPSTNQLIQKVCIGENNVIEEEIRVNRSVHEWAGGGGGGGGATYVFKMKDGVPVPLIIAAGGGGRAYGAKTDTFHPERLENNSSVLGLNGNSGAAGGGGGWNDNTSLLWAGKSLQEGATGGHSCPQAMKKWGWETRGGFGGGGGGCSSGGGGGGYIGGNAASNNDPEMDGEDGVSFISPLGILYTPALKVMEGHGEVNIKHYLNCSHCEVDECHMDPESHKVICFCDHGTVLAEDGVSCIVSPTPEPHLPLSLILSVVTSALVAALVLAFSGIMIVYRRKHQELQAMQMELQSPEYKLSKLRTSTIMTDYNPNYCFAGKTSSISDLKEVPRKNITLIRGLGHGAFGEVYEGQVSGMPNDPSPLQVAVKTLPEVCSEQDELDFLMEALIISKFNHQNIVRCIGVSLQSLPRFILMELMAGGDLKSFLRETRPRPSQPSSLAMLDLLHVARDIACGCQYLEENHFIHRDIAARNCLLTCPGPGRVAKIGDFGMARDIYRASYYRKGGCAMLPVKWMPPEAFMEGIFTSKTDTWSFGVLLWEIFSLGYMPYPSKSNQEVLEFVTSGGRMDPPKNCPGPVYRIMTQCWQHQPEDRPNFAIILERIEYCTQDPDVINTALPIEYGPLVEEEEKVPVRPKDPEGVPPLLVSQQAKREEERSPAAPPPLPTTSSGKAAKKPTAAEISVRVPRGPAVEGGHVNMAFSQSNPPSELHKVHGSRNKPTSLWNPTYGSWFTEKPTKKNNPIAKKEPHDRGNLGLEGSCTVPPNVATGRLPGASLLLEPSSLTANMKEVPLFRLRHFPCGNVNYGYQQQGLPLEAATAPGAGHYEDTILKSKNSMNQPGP
Chain of ALK-wt (Q9UM73 19-1620): as the sequence (Q9UM73 19-1620 L1196M) above, with M1178L counted along it

On to `CC(C)NCC(O)COc1cccc2ccccc12` (centres unmarked) [Propranolol], for which the values for the Papp A→B at 120 min, 10 µM in data set [1] (setting [3]) and in data set [1] (setting [6]) were 160 nm/s and above 100 nm/s, respectively. Besides, the recovery at 120 min, 10 µM is 84.8% in data set [1] (setting [4]) and 91.7% in data set [1] (setting [5]). Also, the efflux ratio at 120 min, 10 µM in data set [1] (120 min) was found to be 0.52. In data set [1] (120 min, 37 °C, HBSS + 1%BSA), the Papp B→A at 120 min, 10 µM turned out to be 84.2 nm/s.
As to `COc1ccc(C(=O)Nc2n[nH]c3ncc(S(=O)(=O)c4cccc(F)c4)cc23)cc1` [10d, N-(5-((3-Fluorophenyl)sulfonyl)-1H-pyrazolo[3,4-b]pyridin-3-yl)-4-methoxybenzamide], the IC50 at ALK-wt is 0.069 µM; on ALK-L1196M it was 0.019 µM. Also, on ALK-L1196M (IC50 19 nM vs 980 nM of crizotinib), the “activity against ALK-L1196M relative to crizotinib” value worked out at 50 fold. The “GI50 H2228 (EML4-ALK)” value in the data set on H2228 (EML4-ALK) cells is “Inactive”. Moreover, the “GI50 Ba/F3 cell lines Parental” value with Parental Ba/F3 cells is reported as “Inactive”. For the same compound, in the data set with ALK wt-TEL Ba/F3 cells, the “GI50 Ba/F3 cell lines ALK wt-TEL” value is listed as “Inactive”. In addition, in data set [2] (setting [7]), the “GI50 Ba/F3 cell lines ALKL1196M-TEL” value is listed as “Inactive”.
On to `CS(=O)(=O)Nc1ccc(C(=O)Nc2n[nH]c3ncc(S(=O)(=O)c4cccc(F)c4)cc23)cc1` [13c, N-(5-((3-Fluorophenyl)sulfonyl)-1H-pyrazolo[3,4-b]pyridin-3-yl)-4-(methylsulfonamido)benzamide], for which the GI50 in the data set on H2228 (EML4-ALK) cells was found to be 9.21 ± 1.92 µM; with ALK wt-TEL Ba/F3 cells, 4.71 ± 3.02 µM; in data set [2] (setting [7]), 5.62 ± 2.34 µM. For the same compound, in the data set with Parental Ba/F3 cells, the “GI50 Ba/F3 cell lines Parental” value was “inactive”. The “differential cytotoxicity against ALK-L1196M Ba/F3 cells vs. parental Ba/F3 cells compared with crizotinib” value (shortened to “differential cytotoxicity”) in data set [2] is listed as “higher differential cytotoxicities”.
In the case of `C[C@@H](Oc1cc(-c2cnn(C3CCNCC3)c2)cnc1N)c1c(Cl)ccc(F)c1Cl` [crizotinib, reference compound], the GI50 in the data set with Parental Ba/F3 cells was 1.65 ± 0.13 µM.
For `CN(C)c1ccc(C(=O)Nc2n[nH]c3ncc(S(=O)(=O)c4cccc(F)c4)cc23)cc1` [10e, 4-(Dimethylamino)-N-(5-((3-fluorophenyl)sulfonyl)-1H-pyrazolo[3,4-b]pyridin-3-yl)benzamide], the IC50 on ALK-wt was 0.0073 µM; at ALK-L1196M, 0.0007 µM. Besides, the GI50 was 8.54 ± 0.78 µM in the data set on H2228 (EML4-ALK) cells, 1.77 ± 0.69 µM with ALK wt-TEL Ba/F3 cells and 4.55 ± 0.72 µM in data set [2] (setting [7]). Besides, the “GI50 Ba/F3 cell lines Parental” value with Parental Ba/F3 cells is “Inactive”. In addition, the “differential cytotoxicity” value in data set [2] was “higher differential cytotoxicities”.
`N#Cc1ccc(C(=O)Nc2n[nH]c3ncc(S(=O)(=O)c4cccc(F)c4)cc23)cc1` [10a, 4-Cyano-N-(5-((3-fluorophenyl)sulfonyl)-1H-pyrazolo[3,4-b]pyridin-3-yl)benzamide]: at ALK-wt, the IC50 worked out at 0.453 µM.
As to `O=C(Nc1n[nH]c2ncc(S(=O)(=O)c3cccc(F)c3)cc12)c1ccc(C(F)(F)F)cc1` [10c, N-(5-((3-Fluorophenyl)sulfonyl)-1H-pyrazolo[3,4-b]pyridin-3-yl)-4-(trifluoromethyl)benzamide], the “IC50 ALK-wt” value against ALK-wt is recorded as “little to no activity”.
The same measure, in the same setting: with `O=C(Nc1n[nH]c2ncc(S(=O)(=O)c3cccc(F)c3)cc12)c1cccc(C(F)(F)F)c1` [10b, N-(5-((3-Fluorophenyl)sulfonyl)-1H-pyrazolo[3,4-b]pyridin-3-yl)-3-(trifluoromethyl)benzamide] the entry was “little to no activity”.
Take `CN1CCN(c2cccc(C(=O)Nc3n[nH]c4ncc(S(=O)(=O)c5cccc(F)c5)cc34)c2)CC1` [10h, N-(5-((3-Fluorophenyl)sulfonyl)-1H-pyrazolo[3,4-b]pyridin-3-yl)-3–(4-methylpiperazin-1-yl)benzamide]: the “GI50 H2228 (EML4-ALK)” value in the data set with H2228 (EML4-ALK) cells is reported as “Inactive”. Besides, the GI50 is 15.2 ± 0.52 µM in the data set with Parental Ba/F3 cells, 3.35 ± 0.24 µM in the data set with ALK wt-TEL Ba/F3 cells and 2.28 ± 0.59 µM in data set [2] (setting [7]). For the same compound, in data set [2], the “differential cytotoxicity” value is given as “higher differential cytotoxicities”.
With `Nc1ccc(C(=O)Nc2n[nH]c3ncc(S(=O)(=O)c4cccc(F)c4)cc23)cc1` [compound 12, 4-Amino-N-(5-((3-fluorophenyl)sulfonyl)-1H-pyrazolo[3,4-b]pyridin-3-yl)benzamide], the GI50 in the data set with H2228 (EML4-ALK) cells was 4.03 ± 1.81 µM; in the data set on ALK wt-TEL Ba/F3 cells, 3.87 ± 1.54 µM; in data set [2] (setting [7]), 1.98 ± 0.28 µM. The “GI50 Ba/F3 cell lines Parental” value in the data set on Parental Ba/F3 cells is “Inactive”. The “differential cytotoxicity” value in data set [2] is on record as “higher differential cytotoxicities”.
Regarding `C[C@H]1O[C@@H](O[C@H]2[C@@H](O)C[C@H](O[C@H]3[C@@H](O)C[C@H](O[C@H]4CC[C@@]5(C)[C@H](CC[C@@H]6[C@@H]5C[C@@H](O)[C@]5(C)[C@@H](C7=CC(=O)OC7)CC[C@]65O)C4)O[C@@H]3C)O[C@@H]2C)C[C@H](O)[C@@H]1O` [Digoxin], the results for the Papp A→B at 120 min, 10 µM in data set [1] (setting [3]) and in data set [1] (setting [6]) were 4.3 nm/s and below 25 nm/s, respectively. Moreover, the recovery at 120 min, 10 µM in data set [1] (setting [4]) came out at 96.8%; in data set [1] (setting [5]), 95.1%. The efflux ratio at 120 min, 10 µM in data set [1] (120 min) amounted to 20.2. Also, the Papp B→A at 120 min, 10 µM in data set [1] (120 min, 37 °C, HBSS + 1%BSA) is 86 nm/s. Further, the “Rank P-gp” value in the data set with Caco-2 cells was “Substrate”.
With `O=C(Nc1n[nH]c2ncc(S(=O)(=O)c3cccc(F)c3)cc12)c1ccc(N2CCOCC2)cc1` [10f, N-(5-((3-Fluorophenyl)sulfonyl)-1H-pyrazolo[3,4-b]pyridin-3-yl)-4-morpholinobenzamide], the “IC50 ALK-wt” value against ALK-wt was “Picomolar inhibitory activity”. Besides, at ALK-L1196M, inhibition was half-maximal at 0.0014 µM (IC50). The GI50 in the data set with H2228 (EML4-ALK) cells came out at 1.69 ± 0.4 µM; in the data set with ALK wt-TEL Ba/F3 cells it was 0.916 ± 0.5 µM; in data set [2] (setting [7]) it was 2.53 ± 1.5 µM. Further, in the data set on Parental Ba/F3 cells, the “GI50 Ba/F3 cell lines Parental” value was “Inactive”. For the same compound, the “differential cytotoxicity” value in data set [2] is “higher differential cytotoxicities”.

One may read the efflux ratio as the permeability from basolateral to apical divided by that in the opposite direction, in the common usage. By Papp B→A is commonly meant the apparent permeability from the basolateral to the apical side of a cell layer. What is called IC50 is the concentration at which inhibition is half-maximal.

The values are drawn from article PMC6713165, “Identification of 1H-pyrazolo[3,4-b]pyridine derivatives as potent ALK-L1196M inhibitors” (Journal of Enzyme Inhibition and Medicinal Chemistry, 2019).
